Data on 3 compounds can be found in paper PMC4976923, “Potent Allosteric Dengue Virus NS5 Polymerase Inhibitors: Mechanism of Action and Resistance Profiling” (PLoS Pathogens, 2016).

The target in one experiment is T1, DENV3 FL NS5 (Dengue virus type 3, UniProt Q6YMS4).
T1 construct: 100 nM DENV FL NS5 protein was added; made in house
Put plainly: DENV3 FL NS5 de novo initiation FAPA assay. The format is biochemical. As to conditions: one experiment; read-out: DENV FL NS5 de novo initiation FAPA, IC50, DENV3. As for the experimental part:
DENV1-4 FL NS5 dnI assays were performed as described previously. Briefly, compounds from 0–20 or -100 μM concentrations are two-fold serially diluted into 384-well black opaque plates (Corning Costar), after which 100 nM DENV FL NS5 protein was added and the plates incubated at RT for 20 min. RNA and ATTO-CTP, ATP, GTP and UTP were then added and the plates incubated for another 120 min. Reactions were stopped with buffer containing 25 nM CIP, re- incubated at RT for 60 min and read on a Tecan Safire II microplate reader. For order-of-addition experiments, DENV4 FL NS5 was incubated for one hour at RT with RNA, ATP, and GTP or RNA, ATP, GTP and ATTO-CTP, followed by exposure to serially diluted compounds for 20 min at RT. The missing components (ATTO-CTP and UTP or UTP alone) were added and the reactions continued for 120 min after which STOP buffer was added as before. All datapoints were performed in duplicate wells. Each compound was tested at least twice.
2 Co mpound testing with DENV dn I FAPA assays. Final dn I assa y reaction mixtures
3 contained 100 nM DENV 5 ´UTR-L-3´UTR IVT RNA, 20 µ M ATP, 20 µM GTP, 20 µM
4 UTP, 5 µM ATTO -CTP, and 100 nM of DENV FL NS5 protein in 15 µl in assa y buffer
5 comprising 50 mM Tris/ HCl, pH 7.5, 10 mM KCl, 1 mM MgCl2, 0.3 mM MnCl2 (DENV2
6 and 4) or 1 mM MnCl 2 (DENV1 and 3), 0.001% Triton- X-100 and 10 µ M cystein e [ 1] . To
7 perform dose-respons e inhibition measurements, compounds from 0- 20 or - 100 µM
8 concentr ations are two -fold seriall y diluted into 384-well black opaqu e plat es (Corning
9 Costar), after which 100 nM DENV FL NS5 protein was added into resp ect ive wells. The
10 plates wer e sealed, b riefl y shak en and centrif uged at 1500 rpm for 30 sec and incubated at RT
11 for 15 min. Thereafter,RNA and ATTO -CTP, ATP, GTP and UTP were added to the wells to
12 start the reactions. The pl ates wer e re-seal ed, shaken and centrifuged as before, followed b y
13 incubation RT for 120 min. Reactions were stopped by addition of 10 µl of 2.5X STOP
14 buffer (200 mM NaCl, 25 mM MgCl2, 1.5M DEA, pH 10; Promega) with 25 nM calf
15 intestinal phosphatase (CIP), re- incubation at RT for 60 min and read on a Tecan Safire II
16 microplate reader. For o r der-of-addition experiments, DENV4 FL NS5 was incubated for one
17 hour at RT with RNA, ATP, and GTP or RNA, ATP, GTP and ATTO-CTP, followed by
18 exposure to seriall y dilut ed compounds for 20 mi n at RT. The missing components (ATTO-
19 CTP and UTP or UTP alone) were added and the reactions continued for 120 min after which
20 STOP buffer was added as before. All datapoints were performed in duplicate wells. Each
21 compound was tested at l east twice.
23 Compound testing in DENV1-4 infected cells by high content imaging. Approximatel y 7
24 × 10^3 A549 cells per well were s eeded into 384-well plates in Ham’s F-12K medium

In the next experiment the test system is DENV4, strain MY01-22713. The settings on record: A549; 48 hr; read-out: DENV4 HCI, EC50 (converted); cited from earlier work.
The target of a further experiment is T2, DENV4 FL NS5 L512V/Q802N (Dengue virus type 4, UniProt P09866, L2999V/Q3290N).
T2 construct: made in house
Type of experiment: binding. As to conditions: 50 µM compound; for Protein melting temperature, Tm, DENV4 FL NS5 L512V/Q802N: DMSO 36.

A further experiment concerns DENV2-NGC replicon L512V. The format is cell-based. As to conditions: electroporated BHK-21; 2 days.
The subject of experiment [1] is Control DENV2-NGC EGFP-replicon cells passaged in DMSO. Put plainly: Control DENV2-NGC EGFP-replicon cells passaged in DMSO. The format is cell-based. As to conditions: Dengue virus, DENV2, 48 h; 2 days. (Replicon systems follow genome replication, usually without infectious particles.)
Experiment [2] concerns DENV2-NGC Ren-LUC Replicon in BHK21. Briefly: Stable BHK21 DENV2-NGC renilla luciferase replicon assay. The format is cell-based. The settings on record: Dengue virus, DENV2, BHK-21; 48 hr.
Another experiment has as its target T3, DENV2 FL NS5 WT (Dengue virus type 2, UniProt P14340).
T3 construct: compared against activities of WT DENV2 or DENV4 FL NS5 proteins; made in house
The format is binding. As to conditions: 50 µM compound; for Protein melting temperature, Tm, DENV2 FL NS5 WT: DMSO 35.5.

Experiment [3] has as its target T4, FL NS5 from BHK-21 DENV2-NGC replicon cell lysate (Dengue virus type 2, UniProt P14340).
T4 construct: FL NS5 from DENV-replicon lysates; expressed in transfected cells; host or cells: BHK-21 cells carrying a DENV2 (New Guinea C) sub-genomic replicon
Put plainly: Cellular thermal shift assay with replicon cell lysate. The format is binding. The settings on record: +50 μM compound; DMSO control 42.5. The source says: 1 Fig. 4.Ph ylo genetic tr ee repres enting relatedn ess of N-pocket amino acid residues from
2 different members of the Flavivirus famil y, derived from Clustal Omega program [ 8] .
6 Fi g .5. Ef fects of N -pocket compounds on DENV pol ymerase thermo-stability. Melting
7 temperatur e (Tm) w as ass essed b y thermo-d enatur ation in presence of the S YPRO Oran ge
8 dye as described in Materials and Methods. (A-F) Representative meltin g curves of DEN V4
10 inhibitors or 5 % DMSO control. (G) Cellular thermal shifts assays [ 9] wer e perfo rmed with
Bri efl y, l ysates w er e
12 incubated with compounds or 5 % DMSO for 1 hr at 4 °C, followed b y heating at 30- 70 °C.
13 Samples were spun and the supernat ants loaded onto 12 % SDS -PAGE gel s , followed b y gel
14 electrophoresis and west ern blotting with anti- DE NV2 NS5 antibody (GeneTex, USA). Table
16 controls treated with DMSO.
(1 picture or pasted object on this page, not shown here)

T2 sequence (P09866 2488-3387 L2999V/Q3290N): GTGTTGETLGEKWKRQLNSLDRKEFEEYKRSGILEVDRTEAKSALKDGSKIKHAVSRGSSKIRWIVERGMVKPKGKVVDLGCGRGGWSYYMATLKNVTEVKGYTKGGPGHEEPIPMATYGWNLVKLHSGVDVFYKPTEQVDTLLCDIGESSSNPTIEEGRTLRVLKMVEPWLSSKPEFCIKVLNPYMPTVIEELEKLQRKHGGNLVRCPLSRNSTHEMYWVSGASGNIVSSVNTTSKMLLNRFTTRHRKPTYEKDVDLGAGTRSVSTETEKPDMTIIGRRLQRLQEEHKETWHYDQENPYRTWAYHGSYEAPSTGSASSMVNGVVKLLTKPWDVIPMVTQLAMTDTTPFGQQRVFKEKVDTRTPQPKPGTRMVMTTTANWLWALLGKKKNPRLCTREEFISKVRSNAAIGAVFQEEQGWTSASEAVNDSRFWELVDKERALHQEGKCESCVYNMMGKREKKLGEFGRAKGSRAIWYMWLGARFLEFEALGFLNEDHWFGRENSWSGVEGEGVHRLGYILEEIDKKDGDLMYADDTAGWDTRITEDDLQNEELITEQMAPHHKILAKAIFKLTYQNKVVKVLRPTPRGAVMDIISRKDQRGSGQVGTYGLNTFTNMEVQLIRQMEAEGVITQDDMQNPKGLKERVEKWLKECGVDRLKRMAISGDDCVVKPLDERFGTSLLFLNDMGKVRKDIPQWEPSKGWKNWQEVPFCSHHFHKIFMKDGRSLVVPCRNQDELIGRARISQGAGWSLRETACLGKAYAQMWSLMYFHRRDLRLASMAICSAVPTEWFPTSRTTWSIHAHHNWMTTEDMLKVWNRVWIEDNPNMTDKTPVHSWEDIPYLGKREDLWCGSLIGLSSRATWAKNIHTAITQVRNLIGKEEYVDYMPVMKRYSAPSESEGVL
T1 sequence (Q6YMS4 2491-3390): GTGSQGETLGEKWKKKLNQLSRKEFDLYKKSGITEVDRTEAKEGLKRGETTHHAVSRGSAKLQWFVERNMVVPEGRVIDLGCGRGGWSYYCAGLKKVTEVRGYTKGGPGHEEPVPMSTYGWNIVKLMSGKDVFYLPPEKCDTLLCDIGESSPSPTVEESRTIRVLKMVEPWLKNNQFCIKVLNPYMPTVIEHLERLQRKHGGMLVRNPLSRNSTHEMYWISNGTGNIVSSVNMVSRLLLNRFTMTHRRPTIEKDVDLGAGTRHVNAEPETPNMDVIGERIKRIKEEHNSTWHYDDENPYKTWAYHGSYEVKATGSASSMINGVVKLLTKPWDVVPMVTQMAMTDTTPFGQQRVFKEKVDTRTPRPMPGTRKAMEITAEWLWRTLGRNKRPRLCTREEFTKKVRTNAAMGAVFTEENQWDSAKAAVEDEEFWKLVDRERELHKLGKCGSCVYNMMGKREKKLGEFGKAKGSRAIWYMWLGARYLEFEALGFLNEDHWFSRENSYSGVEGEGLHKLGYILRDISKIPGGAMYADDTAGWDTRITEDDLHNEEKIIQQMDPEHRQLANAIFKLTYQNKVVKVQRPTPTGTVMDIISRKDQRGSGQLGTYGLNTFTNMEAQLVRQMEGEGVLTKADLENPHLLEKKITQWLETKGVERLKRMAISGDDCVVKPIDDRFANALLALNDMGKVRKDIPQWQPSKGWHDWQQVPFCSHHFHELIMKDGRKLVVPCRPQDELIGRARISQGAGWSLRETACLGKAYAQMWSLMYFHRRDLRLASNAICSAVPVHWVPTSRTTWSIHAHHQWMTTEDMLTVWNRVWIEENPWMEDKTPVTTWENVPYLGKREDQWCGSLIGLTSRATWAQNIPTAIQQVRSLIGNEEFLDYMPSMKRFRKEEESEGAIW

As to `COc1cccc(S(=O)(=O)NC(=O)c2cc(-c3ccc(C#CCO)s3)c(OC)cc2C)c1` [Compound 26i], the IC50 (commonly the concentration that gives 50% inhibition) at DENV3 FL NS5 was determined as 0.054 µM.

`COc1cccc(S(=O)(=O)NC(=O)c2cc(-c3ccc(C#CCO)s3)c(OC)cc2OC)c1` [Compound 27]: the concentration for a half-maximal effect (EC50) – broadly, the midpoint of the concentration-response curve – in the experiment with DENV4, strain MY01-22713 is 1.8 ± 0.2 µM; in the experiment with DENV2-NGC replicon L512V, 25.9 µM; in experiment [1], 2.46 µM; in experiment [2], 3 µM. Moreover, on DENV4 FL NS5 L512V/Q802N, the “Tm change compared to DMSO control, DENV4 FL NS5 L512V/Q802N” value is -1 °C. For the same compound, the “Protein melting temperature, Tm, DENV4 FL NS5 L512V/Q802N” value on DENV4 FL NS5 L512V/Q802N was determined as 35 °C. For the same compound, the “Tm change compared to DMSO control, DENV2 FL NS5 WT” value at DENV2 FL NS5 WT was found to be 1.5 °C. Besides, the “Protein melting temperature, Tm, DENV2 FL NS5 WT” value at DENV2 FL NS5 WT came to 37 °C. In addition, in experiment [3], the “Protein melting temperature Tm with compound, FL NS5 from BHK-21 DENV2-NGC replicon cell lysate” value stood at 47.5 °C.

With `COc1cc(OC)c(-c2ccc(C#CCO)s2)cc1C(=O)NS(=O)(=O)c1cccc2cccnc12` [Compound 29], the EC50 is 10.2 µM with DENV4, strain MY01-22713; 32.3 µM in the experiment on DENV2-NGC replicon L512V; 3.55 µM in experiment [1]; 4.6 µM in experiment [2]. Besides, at DENV3 FL NS5, the IC50 worked out at 0.016 µM. In addition, on DENV4 FL NS5 L512V/Q802N, the “Tm change compared to DMSO control, DENV4 FL NS5 L512V/Q802N” value is -0.5 °C. For the same compound, the “Protein melting temperature, Tm, DENV4 FL NS5 L512V/Q802N” value on DENV4 FL NS5 L512V/Q802N was found to be 35.5 °C. The “Tm change compared to DMSO control, DENV2 FL NS5 WT” value on DENV2 FL NS5 WT was 4.5 °C. Also, the “Protein melting temperature, Tm, DENV2 FL NS5 WT” value at DENV2 FL NS5 WT turned out to be 40 °C. Also, the “Protein melting temperature Tm with compound, FL NS5 from BHK-21 DENV2-NGC replicon cell lysate” value in experiment [3] stood at 50 °C.
